Experimental findings from patent publication US20050227266A1, “Biomarker:compound correlations in cancer diagnosis and therapy” (priority 2004, published 2005) are described below.

For this series, the system named is NCI60 cell lines. The conditions noted are these: not told.

Molecules are shown by their SMILES.

Experimental: Compounds are tested according to a standard protocol (dtp.nci.nih.gov/branches/btb/ivclsp.html, reproduced as Appendix B), and GI50 data (i.e., data indicating the concentration of a compound that inhibits growth of a particular cell line by 50% after 48 hours of exposure) for many compounds, including a set of 171 so-called Standard Agents (dtp.nci.nih.gov/docs/cancer/searches/standard_agent.html, reproduced as Appendix C) are made publicly available.
Inventive biomarker:compound correlations are established by comparing the expression/activity expression and compound toxicity datasets. […] Such comparisons can quantify the association between the variables, e.g., using a Pearson or Spearman correlation. […] For example, to aid in the identification of non-linear relationships between compound toxicity and presence of a biomarker (e.g., a threshold response), values above or below a certain limit may be given a common value, or weighted, before the comparison is measured.
The present inventors established a gene expression profile for each of the 59 publicly-available NCI60 cell lines. […] Specifically, cDNAs that were detectable in fewer than 80% of the cell lines were discarded; approximately 17,000 unique genes were left whose measurements were recorded. […]

For the compound `CC(=O)O[C@H]1C(=O)[C@@]2(C)[C@H]([C@H](OC(=O)c3ccccc3)[C@]3(O)C[C@H](OC(=O)[C@H](O)[C@@H](NC(=O)c4ccccc4)c4ccccc4)C(C)=C1C3(C)C)[C@]1(OC(C)=O)CO[C@@H]1C[C@@H]2O` [Paclitaxol], the “correlation of toxicity pattern with ABCB1 (PGP) gene expression” value is “highest negative correlation”.
